# Where two headings read alike, the source gives them in different places.
# How the values were obtained:
# HIV-1NL4-3 = test: HIV-1 infectivity assay in TZM-bl reporter cell line (LTR-luciferase, 48 h); assay type: cell-based; conditions: Human immunodeficiency virus 1, TZM-bl
# Outline: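 TZM-bl cells infected with HIV-1NL4-3 ± compound (1 μM), luciferase measured at 48 h. Normalization: DMSO/wild-type = 0% inhibition, DMSO/Nef-defective = 100% of Nef-dependent effect.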
# TZM-bl cell line = assay type: cell-based; conditions: human, 1 μM
# Outline: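 Nef-dependent infectivity in TZM-bl cells: HIV-1NL4-3 infection with 1 μM compound, luciferase read at 48 h, normalized against DMSO wild-type and Nef-defective controls. Compound cytotoxicity in uninfected cells measured by Cell Titer Blue.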
# HIV-1 NefNL4-3 = HIV-1 NefNL4-3 (Human immunodeficiency virus type 1 group M subtype B, UniProt P03406, A33V/T15A/T51N/V11I); test: Surface plasmon resonance binding to recombinant full-length Nef (NL4-3); conditions: for T, minutes (residence time): 2-step induced fit, T = 1/koff2; for RU30/RUNef (extent of binding): response units at 30 μM relative to Nef immobilized on the SPR chip
# HIV-1 NL4-3 = test: HIV-1 replication in normal donor PBMCs (p24 Gag AlphaLISA); assay type: cell-based; conditions: Table 1, 4 days; for IC50: Human immunodeficiency virus 1, NL43, PBMC, 96 h
# Experimental: FIG. 4. Inhibition of HIV-1 replication by compounds disclosed herein in PBMCs. Donor PBMCs were infected with HIV-1 in the presence of inhibitor concentrations ranging from 1 to 1,000 nM or the DMSO carrier solvent as a negative control (0.1% DMSO final). Replication was assessed by p24 Gag AlphaLISA (Perkin Elmer) […]. Each donor was also infected with Nef-defective HIV-1 to establish the baseline for Nef-dependent enhancement of replication in each culture. Cytotoxicity was assessed in uninfected PBMCs over the same incubation period using the CellTiter-Blue assay (Promega). Data were fit by non-linear regression analysis (GraphPad Prism v.7.04) to determine the IC50 and CC50 values shown.
# The tables also show data for HIV-1 Replication in normal donor peripheral blood mononuclear cells (PBMCs), which is assay is conducted as follows:
# Non-HLA-typed buffy coats (Source: Pittsburgh Central Blood Bank, #E3755) are received and processed within 24 hours of blood donation. PBMCs are isolated via rocking for RBC separation following 1:1 dilution with PBS, followed by Ficoll gradient centrifugation. The lymphocyte fraction is removed and washed several times for a final concentration of ˜150-300×10^6 cells per donor. Cells are activated for 3 days with 1-5 μg/mL PHA (Sigma) and 50 U/mL IL-2. Cells are plated at 750,000 cells/ml and viability is checked at day 3 using the Cell Titer Blue assay (Promega). If cells are >90% viable, then they are infected with HIV-1 NL4-3, wild-type or Δ-Nef mutant (input typically 30-500 pg/mL p24 capsid equivalents) in the presence or absence of Nef inhibitor analogs. IL-2 is included in the media at the time of infection. After 4 days, cells are lysed with 1% Triton X-100 for 1.5 h, checked for viability via Cell Titer Blue, and frozen/stored at −20° C. HIV-1 replication is assessed with a high-sensitivity HIV-1 p24 AlphaLISA assay (Perkin Elmer) in ½-volume 96-well plates, using one-half of the recommended assay volumes for all reagents (including samples). Assays are read on the BioTek Cytation5 instrument; readout is in AlphaUnits and replication in p24 pg/mL is determined using an HIV-1 p24 capsid protein standard included in the Alpha kit.
# [1] = target: Nef from SIV (strain mac239) (Simian immunodeficiency virus, UniProt Q5QGG3); test: biochemical
# [2] = 1.0 μM, TZM-bl reporter cell line, Table 4, read-out: % Infectivity Inhibition
# [3] = 48 h, Table 1, TZM-bl cells, 1 μM, 48 h, 100% = Nef-defective HIV-1, read-out: HIV-1 Infectivity % Inhibition Norm. to Δ-Nef @ 1 μM
# [4] = KD, M, Table 4, SPR fit 2-step induced fit, KD = koff/kon × koff2/(koff2 + kon2)
# [5] = Nef NL4-3 Binding, SPR 2-state fitting KD, Table 1, 2-step induced-fit model
# [6] = read-out: Nef NL4-3 Binding, SPR 1:1 or 2-site fitting KD2, Table 1, 2-site fit, second component
# [7] = words (Not active, Borderline) where no bound is given
Structure (SMILES),inhibition at 1 µM (HIV-1NL4-3; [2]),inhibition at 1 µM (HIV-1NL4-3; [3]),% Cell Viability (TZM-bl cell line),Percent Viability @ 1 μM (TZM-bl cells) (TZM-bl cell line),Kd (HIV-1 NefNL4-3),Kd (HIV-1 NefNL4-3; [4]),Kd (HIV-1 NefNL4-3; [5]),"T, minutes (residence time) (HIV-1 NefNL4-3; Table 4)",Kd (HIV-1 NefNL4-3; [6]),RU30/RUNef (extent of binding) (HIV-1 NefNL4-3),HIV Replication PBMC IC50 vs. HIV NL4-3 (HIV-1 NL4-3; [7]),IC50 (HIV-1 NL4-3; [7]),IC50 (HIV-1 NL4-3),"inhibition at 1 µM (HIV-1NL4-3; 1 μM, TZM-bl, normalized: DMSO wild-type HIV-1 = 0%, Nef-defective HIV-1 = 100%, read-out: HIV-1 Infectivity % Inhibition norm. to Δ-Nef @ 1 μM)","Kd (HIV-1 NefNL4-3; Reichert SPR Nef NL43 (M) two-step fitting, KD, two-step induced-fit model, Reichert SPR, Table 3)",Kd [1]
"Oc1c(CCc2ccc(F)cc2)c(-c2ccc(C(F)(F)F)cn2)nn1-c1nc2cc(F)ccc2[nH]1 [Compound I-167, 1-(5-fluoro-1H-1,3-benzodiazol-2-yl)-4-[2-(4-fluorophenyl)ethyl]-3-[5-(trifluoromethyl)pyridin-2-yl]-1H-pyrazol-5-ol]",52.1%,52.1%,81.2%,81.2%,2.99e-07 M,2.02e-09 M,2.02e-09 M,5.05E + 03 minutes,1.74e-06 M,1.11E- 02,Not active,,,,,
"CC(C)(C)OC(=O)N1CCC(c2nn(-c3nc4ccccc4[nH]3)c(O)c2CCc2ccc(F)cc2)CC1 [Compound I-202, tert-butyl 4-[1-(1H-1,3-benzodiazol-2-yl)-4-[2-(4-fluorophenyl)ethyl]-5-hydroxy-1H-pyrazol-3-yl]piperidine-1-carboxylate]",100%,105%,79.2%,79.2%,,6.05e-12 M,2.22e-06 M,6.36E + 06 minutes,,4.09E- 03,Not active,,,,,
CC(C)(C)OC(=O)N1CCC(CCc2c(-c3ccc(C(F)(F)F)cc3)nn(-c3nc4ccccc4[nH]3)c2O)CC1 [Compound I-204],5.8%,5.8%,95.1%,95.1%,,2.29e-11 M,2.29e-11 M,,6.35e-11 M,,,≤ 1000 nM,,,,
"CC(C)(C)OC(=O)N1CCCCC1Cc1nn(-c2nc3ccccc3[nH]2)c(O)c1CCc1ccc(F)cc1 (centres unmarked) [Compound I-207, tert-butyl 2-{[1-(1H-1,3-benzodiazol-2-yl)-4-[2-(4-fluorophenyl)ethyl]-5-hydroxy-1H-pyrazol-3-yl]methyl}piperidine-1-carboxylate]",0%,-9.4%,99.3%,99.3%,1.49e-09 M,,,,8.09e-07 M,4.14E- 03,,,≥ 1000 nM,,,
"CC(C)(C)OC(=O)N1CCC(c2nn(-c3nc4ccc(Cl)cc4[nH]3)c(O)c2CCc2ccc(F)cc2)CC1 [Compound I-216, tert-butyl 4-[1-(5-chloro-1H-1,3-benzodiazol-2-yl)-4-[2-(4-fluorophenyl)ethyl]-5-hydroxy-1H-pyrazol-3-yl]piperidine-1-carboxylate]",100%,176%,87.1%,87.1%,1.24e-07 M,8.71e-12 M,8.71e-12 M,4.71E + 05 minutes,8.29e-07 M,1.60E- 02,Not active,,,,,
"CC(=O)N1CCC(Cc2c(-c3ccc(C(F)(F)F)cc3)nn(-c3nc4ccccc4[nH]3)c2O)CC1 [Compound I-720, 1-(4-{[1-(1H-1,3-benzodiazol-2-yl)-5-hydroxy-3-[4-(trifluoromethyl)phenyl]-1H-pyrazol-4-yl]methyl}piperidin-1-yl)ethan-1-one]",92.2%,92.2%,71.4%,71.4%,1.19e-06 M,1.81e-06 M,1.81e-06 M,1.32E + 00 minutes,,2.80E- 03,,,,92.2%,1.81e-06 M,21.8 nM

# Reference: patent publication US20220380341A1, “INHIBITORS OF HIV-1 NEF FOR THE TREATMENT OF HIV DISEASE” (priority 2018, published 2022)
